Reference: patent EP4574818A1, “ONIUM SALT OF NITROGEN-CONTAINING HETEROARYL COMPOUND AND PEST CONTROL AGENT” (priority 2022, dated 2024)
Like-named read-outs stand apart in the source and are kept apart here.

How the values were obtained:
Format in all cases: in vivo
[1] = system: Mythimna separata; experiment: Efficacy test against Mythimna separata (treated artificial feed); conditions: 1 µl of emulsion (I) (5% by mass active ingredient) mixed with 0.8 g artificial feed; second-instar larvae; 25°C; after five days
Description: (§1) 5 parts by mass of a compound of the present invention, 93.6 parts by mass of dimethylformamide, and 1.4 parts by mass of polyoxyethylene alkyl aryl ether were mixed and dissolved to obtain an emulsion (I) containing 5% by mass of the active ingredient.
0.8 g of commercially-available artificial feed (Insect LFS, manufactured by Nosan Corporation) and 1 µl of the emulsion (I) were mixed well, and then 0.2 g of the mixture per treated area was packed into plastic test containers (each having a capacity of 1.4 ml) as test feeds.
Two second-instar larvae of Mythimna separata were left per treated area, and then the test containers were sealed with plastic covers. The test containers were placed in a thermostatic chamber at 25°C, and, after five days had passed therefrom, the mortality and the feed intake were measured. The test was repeated twice.
In addition, the test was carried out under the same conditions as described above, except that the emulsion (II) was used instead of the emulsion (I), and evaluated as a solvent control area.

[2] = system: Spodoptera litura; experiment: Efficacy test against Spodoptera litura (cabbage leaf immersion); conditions: 144 h, read-out: mortality of Spodoptera litura
Description: A cabbage leaf was immersed in the diluted solution for 30 seconds. The cabbage leaf was air-dried and then put in a petri dish, followed by leaving five second-instar larvae of Spodoptera litura therein. The petri dish was placed in a thermostatic chamber at a temperature of 25°C and a humidity of 60%. After six days had passed from leaving the larvae, life or death was assessed and the mortality was calculated. The test was repeated twice.

[3] = system: Plutella xylostella; experiment: Efficacy test against Plutella xylostella (cabbage leaf immersion); conditions: 72 h
Description: The emulsion (II) was diluted with water at the same dilution ratio as the diluted solution (I), thereby obtaining a diluted solution (II). A cabbage leaf was immersed in each of the diluted solutions for 30 seconds. Each cabbage leaf after immersion was air-dried and then put in a petri dish, followed by leaving five second-instar larvae of Plutella xylostella therein. The petri dishes were placed in a thermostatic chamber at a temperature of 25°C and a humidity of 60%. After three days had passed from leaving the larvae, life or death was assessed and the mortality was calculated. The test was repeated twice.

[4] = system: Phyllotreta striolata; experiment: Efficacy test against Phyllotreta striolata (sprayed bok-choy seedling); conditions: 168 h, read-out: mortality against the adults of Phyllotreta striolata
Description: as §1
The emulsion (I) was diluted with water such that the concentration of the compound of the present invention became 125 ppm by mass. The diluted solution was sprayed to a bok-choy seedling (at the 7th leafe stage) planted in a 3-sun pot. After air-dried, the bok-choy seedling was placed in a plastic cup, and ten adults of Phyllotreta striolata were left therein. The plastic cup was placed in a thermostatic chamber at a temperature of 25°C and a humidity of 65%. After seven days had passed from leaving the adults, life or death was assessed and the mortality was calculated. The test was repeated twice.

[5] = 125 ppm by mass, cabbage leaf immersed 30 seconds, second-instar larvae, 25°C, humidity 60%, after six days
[6] = 125 ppm by mass, cabbage leaf immersed 30 seconds, second-instar larvae of Plutella xylostella, 25°C, humidity 60%, after three days, read-out: mortality
[7] = 125 ppm by mass, sprayed to bok-choy seedling, adults, 25°C, humidity 65%, after seven days

Structure (SMILES)	mortality of Mythimna separata or feed intake relative to the feed intake at the solvent control area [1]	mortality at 125 ppm [2, 5]	mortality at 125 ppm [3, 6]	further results
Cn1c[n+]([N-]C(=O)c2cc(Cl)nc(Oc3ccc(OC(F)(F)F)cc3)c2)cn1 [Compound 2]	100% mortality of Mythimna separata or 10% or less of the feed intake	≥ 80%	–	–
O=C([N-][n+]1ccccc1)c1cc(Cl)nc(Oc2ccc(OC(F)(F)C(F)F)cc2)c1 [Compound 4]	100% mortality of Mythimna separata or 10% or less of the feed intake	≥ 80%	≥ 80%	–
Cc1cc[n+]([N-]C(=O)c2cc(Cl)nc(Oc3ccc(OC(F)(F)C(F)(F)F)cc3)c2)cc1 [Compound 5]	–	≥ 80%	≥ 80%	–
COc1cc[n+]([N-]C(=O)c2cc(Cl)nc(Oc3ccc(OC(F)(F)C(F)(F)F)cc3)c2)cc1 [Compound 6]	–	≥ 80%	≥ 80%	–
Cn1c[n+]([N-]C(=O)c2cc(Cl)nc(Oc3ccc(OC(F)(F)C(F)(F)F)cc3)c2)cn1 [Compound 8]	–	≥ 80%	–	–
Cn1cc[n+]([N-]C(=O)c2cc(Cl)nc(Oc3ccc(OC(F)(F)C(F)(F)F)cc3)c2)c1 [Compound 9]	–	≥ 80%	≥ 80%	–
O=C([N-][n+]1cccc(F)c1)c1cc(Cl)nc(Oc2ccc(OC(F)(F)C(F)F)cc2)c1 [Compound 11]	–	≥ 80%	≥ 80%	–
O=C([N-][n+]1ccccc1)c1cc(Br)nc(Oc2ccc(OC(F)(F)C(F)(F)F)cc2)c1 [Compound 12]	–	≥ 80%	≥ 80%	–
O=C([N-][n+]1ccccc1)c1cc(Br)nc(Oc2ccc(OC(F)(F)C(F)F)cc2)c1 [Compound 13]	–	≥ 80%	≥ 80%	–
N#Cc1cc(C(=O)[N-][n+]2ccccc2)cc(Oc2ccc(OC(F)(F)C(F)(F)F)cc2)n1 [Compound 14]	–	≥ 80%	≥ 80%	–
O=C([N-][n+]1ccccc1)c1cc(Cl)nc(Oc2ccc(C3(C(F)(F)F)CC3)cc2)c1 [Compound 15]	–	≥ 80%	≥ 80%	–
O=C([N-][n+]1ccccc1)c1cc(Cl)nc(Oc2ccc(OC(F)(F)C(F)OC(F)(F)F)cc2)c1 (centres unmarked) [Compound 16]	–	≥ 80%	≥ 80%	–
O=C([N-][n+]1cnn(CC(F)(F)F)c1)c1cc(Cl)nc(Oc2ccc(OC(F)(F)C(F)(F)F)cc2)c1 [Compound 17]	–	≥ 80%	≥ 80%	–
O=C([N-][n+]1cnn(CC(F)F)c1)c1cc(Cl)nc(Oc2ccc(OC(F)(F)C(F)(F)F)cc2)c1 [Compound 18]	–	≥ 80%	≥ 80%	–
CC(C)n1c[n+]([N-]C(=O)c2cc(Cl)nc(Oc3ccc(OC(F)(F)C(F)(F)F)cc3)c2)cn1 [Compound 19]	–	≥ 80%	≥ 80%	mortality at 125 ppm [4, 7]: ≥ 80%
O=C([N-][n+]1ccccc1)c1cc(Cl)nc(Oc2ccc(OC(F)(F)C(F)OC(F)(F)C(F)(F)C(F)(F)F)cc2)c1 (centres unmarked) [Compound 20]	–	–	–	mortality at 125 ppm [2]: ≥ 80%; mortality at 125 ppm ([3]; Plutella xylostella): ≥ 80%; mortality at 125 ppm [4]: ≥ 80%
CCn1c[n+]([N-]C(=O)c2cc(Cl)nc(Oc3ccc(OC(F)(F)C(F)OC(F)(F)C(F)(F)C(F)(F)F)cc3)c2)cn1 (centres unmarked) [Compound 21]	–	–	–	mortality at 125 ppm [2]: ≥ 80%; mortality at 125 ppm ([3]; Plutella xylostella): ≥ 80%; mortality at 125 ppm [4]: ≥ 80%
O=C([N-][n+]1ccccc1)c1cc(Cl)nc(Oc2ccc(OC(F)(F)C(F)OC(F)(F)C(F)(F)C(F)(F)OC(F)(F)F)cc2)c1 (centres unmarked) [Compound 22]	–	–	–	mortality at 125 ppm [2]: ≥ 80%; mortality at 125 ppm ([3]; Plutella xylostella): ≥ 80%; mortality at 125 ppm [4]: ≥ 80%

Structure (SMILES)	mortality of Mythimna separata or feed intake relative to the feed intake at the solvent control area [1]	mortality at 125 ppm [2, 5]	mortality at 125 ppm [3, 6]	further results
CCn1c[n+]([N-]C(=O)c2cc(Cl)nc(Oc3ccc(OC(F)(F)C(F)OC(F)(F)C(F)(F)C(F)(F)OC(F)(F)F)cc3)c2)cn1 (centres unmarked) [Compound 23]	–	–	–	mortality at 125 ppm [2]: ≥ 80%; mortality at 125 ppm ([3]; Plutella xylostella): ≥ 80%; mortality at 125 ppm [4]: ≥ 80%
O=C([N-][n+]1ccccc1)c1cc(Cl)nc(Oc2ccc(SC(F)(F)F)cc2)c1 [Compound 25, (2-chloro-6-(4-((trifluoromethyl)thio)phenoxy)isonicotinoyl) (pyridin-1-ium-1-yl)amide]	–	≥ 80%	≥ 80%	mortality at 125 ppm [4, 7]: ≥ 80%
CCn1c[n+]([N-]C(=O)c2cc(Cl)nc(Oc3ccc(OC(F)(F)F)cc3)c2)cn1 [Compound 165, (2-chloro-6-(4-(trifluoromethoxy)phenoxy)isonicotinoyl)(1-ethyl-1H-1,2,4-triazol-4-ium-4-yl)amide]	100% mortality of Mythimna separata or 10% or less of the feed intake	≥ 80%	≥ 80%	–
O=C([N-][n+]1ccccc1)c1cc(Oc2ccc(OC(F)(F)F)cc2)nc(-c2ccc(F)cc2)c1 [Compound 207]	100% mortality of Mythimna separata or 10% or less of the feed intake	≥ 80%	≥ 80%	–
O=C([N-][n+]1ccccc1)c1cc(Oc2ccc(OC(F)(F)F)cc2)nc(Oc2ccc(OC(F)(F)F)cc2)c1 [Compound 208]	–	≥ 80%	≥ 80%	–
N#Cc1ccc(Oc2cc(C(=O)[N-][n+]3ccccc3)cc(Cl)n2)cc1 [Compound 209]	100% mortality of Mythimna separata or 10% or less of the feed intake	–	–	–
CCn1c[n+]([N-]C(=O)c2cc(Cl)nc(Oc3ccc(C4CC4(Cl)Cl)cc3)c2)cn1 (centres unmarked) [Compound 210]	100% mortality of Mythimna separata or 10% or less of the feed intake	–	–	–
O=C([N-][n+]1ccccc1)c1cc(Cl)nc(Oc2ccc(C3CC3(Cl)Cl)cc2)c1 (centres unmarked) [Compound 211]	100% mortality of Mythimna separata or 10% or less of the feed intake	–	–	mortality at 125 ppm [4, 7]: ≥ 80%
CCn1c[n+]([N-]C(=O)c2cc(Cl)nc(Oc3ccc(C4CC4(F)F)cc3)c2)cn1 (centres unmarked) [Compound 212]	100% mortality of Mythimna separata or 10% or less of the feed intake	–	–	–
O=C([N-][n+]1ccccc1)c1cc(Cl)nc(Oc2ccc(C3CC3(F)F)cc2)c1 (centres unmarked) [Compound 213]	100% mortality of Mythimna separata or 10% or less of the feed intake	–	–	–
O=C([N-][n+]1ccccc1)c1cc(Oc2ccc(OC(F)(F)C(F)(F)F)cc2)nc(C2CC2)c1 [Compound 215, (2-cyclopropyl-6-(4-(perfluoroethoxy)phenoxy)isonicotinoyl)(pyridin-1-ium-1-yl)amide]	100% mortality of Mythimna separata or 10% or less of the feed intake	≥ 80%	≥ 80%	–
CCn1c[n+]([N-]C(=O)c2cc(Cl)nc(Oc3ccc4nc(C(F)(F)F)ccc4c3)c2)cn1 [Compound 216]	100% mortality of Mythimna separata or 10% or less of the feed intake	–	–	–
O=C([N-][n+]1ccccc1)c1cc(Cl)nc(Oc2cnn(C=C(F)C(F)(F)F)c2)c1 [Compound 217]	–	≥ 80%	–	–
CCn1c[n+]([N-]C(=O)c2cc(I)nc(Oc3ccc(OC(F)(F)C(F)(F)F)cc3)c2)cn1 [Compound 218]	–	≥ 80%	≥ 80%	mortality at 125 ppm [4, 7]: ≥ 80%
O=C([N-][n+]1ccccc1)c1cc(I)nc(Oc2ccc(OC(F)(F)C(F)(F)F)cc2)c1 [Compound 219, (2-iodo-6-(4-(perfluoroethoxy)phenoxy)isonicotinoyl)(pyridin-1-ium-1-yl)amide]	–	≥ 80%	≥ 80%	mortality at 125 ppm [4, 7]: ≥ 80%
COC(=O)c1cc(C(=O)[N-][n+]2ccccc2)cc(Oc2ccc(OC(F)(F)C(F)(F)F)cc2)n1 [Compound 220]	–	–	≥ 80%	–
O=C([N-][n+]1ccccc1)c1cc(Oc2ccc(SC(F)(F)C(F)F)cc2)nc(-n2cccn2)c1 [Compound 221]	–	≥ 80%	≥ 80%	–
